The compounds below were run against Syk (Homo sapiens, UniProt P43405) (assay: High Throughput Syk Biochemical Assay (KinEASE TR-FRET)). Conditions: TABLE D, 20 μM ATP, 1 μM biotinylated peptide, 0.015 nM Syk, 30 min at room temperature, read-out: IC50.
Method in brief: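 Two-step endpoint TR-FRET (KinEASE) measured Syk phosphorylation of an XL665-labelled peptide, detected with europium anti-phosphotyrosine antibody. Compounds were serially diluted in DMSO.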

Compound `C[C@@H](Oc1cc(-c2cccc(C(F)(F)F)n2)cc2ncn(C)c12)[C@H]1CNC(=O)C1` [(R)-4-((R)-1-((1-methyl-5-(6-(trifluoromethyl)pyridin-2-yl)-1H-benzo[d]imidazol-7-yl)oxy)ethyl)pyrrolidin-2-one] has an IC50 of 191 nM.

Same assay, conditions: table 'ALL NEW COMPOUNDS IN 2014', 20 μM ATP, 1 μM biotinylated peptide, 0.015 nM Syk, 30 min at room temperature, read-out: Syk IC50

In order of falling IC50:
1. C[C@@H](Oc1cc(-c2ccnn2C2CCOCC2)cc2ncn(C3CC3)c12)[C@H]1CNC(=O)C1 [(R)-4-((R)-1-((1-cyclopropyl-5-(1-(tetrahydro-2H-pyran-4-yl)-1Hpyrazol-5-yl)-1H-benzo[d]imidazol-7-yl)oxy)ethyl)pyrrolidin-2-one]  411 nM
2. C[C@@H](Oc1nc(-c2ccc(N3CCN(C4COC4)CC3)cc2)cc2ncn(CCO)c12)[C@H]1CNC(=O)C1 [(R)-4-((R)-1-((3-(2-hydroxyethyl)-6-(4-(4-(oxetan-3-yl)piperazin-1-yl)phenyl)-3H-imidazo[4,5-c]pyridin-4-yl)oxy)ethyl)pyrrolidin-2-one]  135 nM
3. C[C@@H](Oc1cc(-c2cnccn2)cc2ncn(C3CC3)c12)[C@H]1CNC(=O)C1 [(R)-4-((R)-1-((1-cyclopropyl-5-(pyrazin-2-yl)-1H-benzo[d]imidazol-7-yl)oxy)ethyl)pyrrolidin-2-one]  66.7 nM
4. C[C@@H](Oc1cc(-c2ccncn2)cc2ncn(C3CC3)c12)[C@H]1CNC(=O)C1 [(R)-4-((R)-1-((1-cyclopropyl-5-(pyrimidin-4-yl)-1H-benzo[d]imidazol-7-yl)oxy)ethyl)pyrrolidin-2-one]  24.6 nM
5. COc1cc(-c2cc(O[C@H](C)[C@H]3CNC(=O)C3)c3c(c2)ncn3C2CC2)ccc1OC(F)F [(R)-4-((R)-1-((1-cyclopropyl-5-(4-(difluoromethoxy)-3-methoxyphenyl)-1H-benzo[d]imidazol-7-yl)oxy)ethyl)pyrrolidin-2-one]  23.1 nM
6. C[C@@H](Oc1cc(-c2cnn(C)n2)cc2ncn(C3CC3)c12)[C@H]1CNC(=O)C1 [(R)-4-((R)-1-((1-cyclopropyl-5-(2-methyl-2H-1,2,3-triazol-4-yl)-1H-benzo[d]imidazol-7-yl)oxy)ethyl)pyrrolidin-2-one]  22.4 nM
7. C[C@@H](Oc1cc(-c2ccccc2)cc2ncn(C3CC3)c12)[C@H]1CNC(=O)C1 [(R)-4-((R)-1-((1-cyclopropyl-5-phenyl-1H-benzo[d]imidazol-7-yl)oxy)ethyl)pyrrolidin-2-one]  18 nM
8. Cc1nc(-c2cc(O[C@H](C)[C@H]3CNC(=O)C3)c3c(c2)ncn3C2CC2)cs1 [(R)-4-((R)-1-((1-cyclopropyl-5-(2-methylthiazol-4-yl)-1H-benzo[d]imidazol-7-yl)oxy)ethyl)pyrrolidin-2-one]  16.7 nM
9. CCOc1cc(-c2cc(O[C@H](C)[C@H]3CNC(=O)C3)c3c(c2)ncn3C2CC2)ccc1OC [(R)-4-((R)-1-((1-cyclopropyl-5-(3-ethoxy-4-methoxyphenyl)-1H-benzo[d]imidazol-7-yl)oxy)ethyl)pyrrolidin-2-one]  12.9 nM
10. C[C@@H](Oc1cc(-c2ccc(N3CCN(C4COC4)CC3)nn2)cc2ncn(C3CC3)c12)[C@H]1CNC(=O)C1 [(R)-4-((R)-1-((1-cyclopropyl-5-(6-(4-(oxetan-3-yl)piperazin-1-yl)pyridazin-3-yl)-1H-benzo[d]imidazol-7-yl)oxy)ethyl)pyrrolidin-2-one]  11.6 nM
11. C[C@@H](Oc1cc(-c2ccn(C)n2)cc2ncn(C3CC3)c12)[C@H]1CNC(=O)C1 [(R)-4-((R)-1-((1-cyclopropyl-5-(1-methyl-1H-pyrazol-3-yl)-1H-benzo[d]imidazol-7-yl)oxy)ethyl)pyrrolidin-2-one]  10.6 nM
12. C[C@@H](Oc1cc(-c2ccccn2)cc2ncn(C3CC3)c12)[C@H]1CNC(=O)C1 [(R)-4-((R)-1-((1-cyclopropyl-5-(pyridin-2-yl)-1H-benzo[d]imidazol-7-yl)oxy)ethyl)pyrrolidin-2-one]  10.6 nM
13. C[C@@H](Oc1cc(-c2nccs2)cc2ncn(C3CC3)c12)[C@H]1CNC(=O)C1 [(R)-4-((R)-1-((1-cyclopropyl-5-(thiazol-2-yl)-1H-benzo[d]imidazol-7-yl)oxy)ethyl)pyrrolidin-2-one]  9.4 nM
14. C[C@@H](Oc1cc(-c2ccc3c(c2)NCC3(C)C)cc2ncn(C3CC3)c12)[C@H]1CNC(=O)C1 [(R)-4-((R)-1-((1-cyclopropyl-5-(3,3-dimethylindolin-6-yl)-1H-benzo[d]imidazol-7-yl)oxy)ethyl)pyrrolidin-2-one]  9.11 nM
15. C[C@@H](Oc1cc(-c2cnn(-c3ccncc3)c2)cc2ncn(C3CC3)c12)[C@H]1CNC(=O)C1 [(R)-4-((R)-1-((1-cyclopropyl-5-(1-(pyridin-4-yl)-1H-pyrazol-4-yl)-1H-benzo[d]imidazol-7-yl)oxy)ethyl)pyrrolidin-2-one]  7.58 nM
16. C[C@@H](Oc1cc(-c2ccc(N3CCN(C4COC4)CC3)nc2)cc2ncn(C3CC3)c12)[C@H]1CNC(=O)C1 [(R)-4-((R)-1-((1-cyclopropyl-5-(6-(4-(oxetan-3-yl)piperazin-1-yl)pyridin-3-yl)-1H-benzo[d]imidazol-7-yl)oxy)ethyl)pyrrolidin-2-one]  7.38 nM
17. C[C@@H](Oc1cc(-c2ccc(N3CCC(N4CCOCC4)CC3)cn2)cc2ncn(C3CC3)c12)[C@H]1CNC(=O)C1 [(R)-4-((R)-1-((1-cyclopropyl-5-(5-(4-morpholinopiperidin-1-yl)pyridin-2-yl)-1H-benzo[d]imidazol-7-yl)oxy)ethyl)pyrrolidin-2-one]  6.85 nM
18. Cc1nnc(-c2cc(O[C@H](C)[C@H]3CNC(=O)C3)c3c(c2)ncn3C2CC2)s1 [(R)-4-((R)-1-((1-cyclopropyl-5-(5-methyl-1,3,4-thiadiazol-2-yl)-1H-benzo[d]imidazol-7-yl)oxy)ethyl)pyrrolidin-2-one]  5.45 nM
19. C[C@@H](Oc1cc(-c2ccc3c(cnn3C)c2)cc2ncn(C3CC3)c12)[C@H]1CNC(=O)C1 [(R)-4-((R)-1-((1-cyclopropyl-5-(1-methyl-1H-indazol-5-yl)-1H-benzo[d]imidazol-7-yl)oxy)ethyl)pyrrolidin-2-one]  5.02 nM
20. C[C@@H](Oc1cc(-c2ccc3c(n2)NCCO3)cc2ncn(C3CC3)c12)[C@H]1CNC(=O)C1 [(R)-4-((R)-1-((1-cyclopropyl-5-(3,4-dihydro-2H-pyrido[3,2-b][1,4]oxazin-6-yl)-1H-benzo[d]imidazol-7-yl)oxy)ethyl)pyrrolidin-2-one]  4.76 nM
21. C[C@@H](Oc1cc(-c2ccc(N3CCN(C4COC4)CC3)cn2)cc2ncn(C3CC3)c12)[C@H]1CNC(=O)C1 [(R)-4-((R)-1-((1-cyclopropyl-5-(5-(4-(oxetan-3-yl)piperazin-1-yl)pyridin-2-yl)-1H-benzo[d]imidazol-7-yl)oxy)ethyl)pyrrolidin-2-one]  4.72 nM
22. C[C@@H](Oc1cc(-c2ccc(N3CCC(C4COC4)CC3)cn2)cc2ncn(C3CC3)c12)[C@H]1CNC(=O)C1 [(R)-4-((R)-1-((1-cyclopropyl-5-(5-(4-(oxetan-3-yl)piperidin-1-yl)pyridin-2-yl)-1H-benzo[d]imidazol-7-yl)oxy)ethyl)pyrrolidin-2-one]  4.65 nM
23. C[C@@H](Oc1cc(-c2cnn(C)c2)cc2ncn(C3CC3)c12)[C@H]1CNC(=O)C1 [(R)-4-((R)-1-((1-cyclopropyl-5-(1-methyl-1H-pyrazol-4-yl)-1H-benzo[d]imidazol-7-yl)oxy)ethyl)pyrrolidin-2-one]  4.44 nM
24. C[C@@H](Oc1cc(-c2ccc3c(c2)NCCN3C)cc2ncn(C3CC3)c12)[C@H]1CNC(=O)C1 [(R)-4-((R)-1-((1-cyclopropyl-5-(1-methyl-1,2,3,4-tetrahydroquinoxalin-6-yl)-1H-benzo[d]imidazol-7-yl)oxy)ethyl)pyrrolidin-2-one]  3.83 nM
25. C[C@@H](Oc1cc(-c2ccc(N3CCN(C4COC4)CC3)c(F)c2)cc2ncn(C3CC3)c12)[C@H]1CNC(=O)C1 [(R)-4-((R)-1-((1-cyclopropyl-5-(3-fluoro-4-(4-(oxetan-3-yl)piperazin-1-yl)phenyl)-1H-benzo[d]imidazol-7-yl)oxy)ethyl)pyrrolidin-2-one]  3.08 nM
26. C[C@@H](Oc1cc(-c2ccc(N3CCN(C4COC4)CC3)cc2F)cc2ncn(C3CC3)c12)[C@H]1CNC(=O)C1 [(R)-4-((R)-1-((1-cyclopropyl-5-(2-fluoro-4-(4-(oxetan-3-yl)piperazin-1-yl)phenyl)-1H-benzo[d]imidazol-7-yl)oxy)ethyl)pyrrolidin-2-one]  2.76 nM
27. C[C@@H](Oc1cc(-c2ccc3c(c2)NCCO3)cc2ncn(C3CC3)c12)[C@H]1CNC(=O)C1 [(R)-4-((R)-1-((1-cyclopropyl-5-(3,4-dihydro-2H-benzo[b][1,4]oxazin-6-yl)-1H-benzo[d]imidazol-7-yl)oxy)ethyl)pyrrolidin-2-one]  2.56 nM
28. Cc1cc(-c2cc(O[C@H](C)[C@H]3CNC(=O)C3)c3c(c2)ncn3C2CC2)ccc1N1CCN(C2COC2)CC1 [(R)-4-((R)-1-((1-cyclopropyl-5-(3-methyl-4-(4-(oxetan-3-yl)piperazin-1-yl)phenyl)-1H-benzo[d]imidazol-7-yl)oxy)ethyl)pyrrolidin-2-one]  2.15 nM
29. Cc1cnc(-c2cc(O[C@H](C)[C@H]3CNC(=O)C3)c3c(c2)ncn3C2CC2)s1 [(R)-4-((R)-1-((1-cyclopropyl-5-(5-methylthiazol-2-yl)-1H-benzo[d]imidazol-7-yl)oxy)ethyl)pyrrolidin-2-one]  1.73 nM
30. C[C@@H](Oc1cc(-c2cnc(C(C)(C)O)s2)cc2ncn(C3CC3)c12)[C@H]1CNC(=O)C1 [(R)-4-((R)-1-((1-cyclopropyl-5-(2-(2-hydroxypropan-2-yl)thiazol-5-yl)-1H-benzo[d]imidazol-7-yl)oxy)ethyl)pyrrolidin-2-one]  1.41 nM
31. Cc1nc(-c2cc(O[C@H](C)[C@H]3CNC(=O)C3)c3c(c2)ncn3C2CC2)sc1C [(R)-4-((R)-1-((1-cyclopropyl-5-(4,5-dimethylthiazol-2-yl)-1H-benzo[d]imidazol-7-yl)oxy)ethyl)pyrrolidin-2-one]  1.41 nM
32. C[C@@H](Oc1cc(-c2cnc(C3CCOCC3)s2)cc2ncn(C3CC3)c12)[C@H]1CNC(=O)C1 [(R)-4-((R)-1-((1-cyclopropyl-5-(2-(tetrahydro-2H-pyran-4-yl)thiazol-5-yl)-1H-benzo[d]imidazol-7-yl)oxy)ethyl)pyrrolidin-2-one]  0.54 nM

From patent US10005774B2, “Syk inhibitors” (Gilead Sciences, Inc., priority 2013, dated 2018)
